Experimental data reported in ChEMBL document CHEMBL5518232, “Discovery of New Tricyclic Oxime Sampangine Derivatives as Potent Antifungal Agents for the Treatment of Cryptococcosis and Candidiasis” (J Med Chem, 2024).
≈ marks a conversion by molar mass, not a printed value. Calls of active or inactive are those of the source. The rule behind the calls is not given here.

What was measured:
Candida albicans [1] = test: Antifungal activity against Candida albicans 0304103 assessed as reversal of ERG11 expression by measuring fold change at 16 ug/ml incubated for 24 hrs in presence of fluconazole by RT-PCR analysis (reference value: 8.8); assay type: functional; settings: dose 16 µg/ml
Candida tropicalis [2] = test: Synergistic antifungal activity against Candida tropicalis 10186 assessed as inhibition of fungal growth incubated for 48 hrs in presence of fluconazole by checkerboard microdilution assay; assay type: functional, organism-based
Pichia kudriavzevii = test: Synergistic antifungal activity against Candida krusei 10153 assessed as inhibition of fungal growth incubated for 48 hrs in presence of fluconazole by checkerboard microdilution assay; assay type: functional, organism-based
Candida albicans [3] = test: In vivo antifungal activity against Candida albicans SC5314 infected in […] ICR mouse model assessed as reduction in fungal burden in kidney at 10 mg/kg, ip measured for 5 days; assay type: functional, organism-based; settings: time 5.0 day
Candida albicans [4] = test: Antifungal activity against Candida albicans 0304103 assessed as downregulation of CDR1 expression at 16 ug/ml incubated for 24 hrs in presence of fluconazole by RT-PCR analysis; assay type: functional, organism-based; settings: dose 16.0 µg/ml
[5] = Effective permeability of the compound across blood brain barrier incubated for 12 hrs by PAMPA assay; assay type: ADME; settings: read-out: Peff
Candida albicans [6] = test: Antifungal activity against Candida albicans 0304103 assessed as log reduction in fungal growth at 8 ug/ml incubated for 48 hrs by time growth curve assay (reference value: 7.38 log10CFU/ml); assay type: functional; settings: dose 8 µg/ml
Candida albicans [7] = test: Antifungal activity against Candida albicans 0304103 assessed as downregulation of ERG11 expression at 16 ug/ml incubated for 24 hrs in presence of fluconazole by RT-PCR analysis; assay type: functional, organism-based; settings: dose 16.0 µg/ml
Cryptococcus neoformans [8] = test: Antifungal activity against Cryptococcus neoformans H99 assessed as inhibition of capsule growth 2 ug/ml measured after 24 hrs by laser confocal microscopy based analysis relative to control; assay type: functional; parameters: scale not given: the % may be the effect or the level left; settings: dose 2 µg/ml
Candida albicans [9] = test: Synergistic antifungal activity against Candida albicans 0304103 assessed as fractional inhibitory concentration index by measuring ratio of MIC80 for compound and synergetic / MIC80 for compound alone + MIC80 for fluconazole synergetic / MIC80 for fluconazole alone; assay type: functional
Candida albicans [10] = test: Antifungal activity against Candida albicans 0304103 assessed as downregulation of GCA1 expression at 8 ug/ml incubated for 24 hrs in presence of fluconazole by RT-PCR analysis; assay type: functional, organism-based; settings: dose 8.0 µg/ml
Candida parapsilosis = test: Synergistic antifungal activity against Candida parapsilosis 20090 assessed as inhibition of fungal growth incubated for 48 hrs in presence of fluconazole by checkerboard microdilution assay; assay type: functional, organism-based
Candida tropicalis [11] = test: Antifungal activity against Candida tropicalis 10186 assessed as reduction in fungal growth incubated for 48 hrs by liquid based microdilution method; assay type: functional
Candida albicans [12] = test: In vivo antifungal activity against Candida albicans 0304103 infected in […] ICR mouse model assessed as reduction in fungal burden in kidney at 5 mg/kg, ip measured for 5 days in presence of fluconazole (reference value: 7.37 log10CFU/g); assay type: functional; settings: time 5 day
Candida albicans [13] = test: Antifungal activity against Candida albicans 0304103 assessed as downregulation of GCA2 expression at 8 ug/ml incubated for 24 hrs in presence of fluconazole by RT-PCR analysis; assay type: functional, organism-based; settings: dose 8.0 µg/ml
Nakaseomyces glabratus = test: Antifungal activity against Candida glabrata 9073 assessed as reduction in fungal growth incubated for 48 hrs by liquid based microdilution method; assay type: functional
Cryptococcus neoformans [14] = test: In vivo antifungal activity against Cryptococcus neoformans H99 infected in cryptococcal meningitis ICR mouse model assessed as reduction in fungal burden in brain at 5 mg/kg, ip measured for 5 days (reference value: 8.18 log10CFU/g); assay type: functional; settings: time 5 day
Candida albicans [15] = test: Synergistic antifungal activity against Candida albicans 0304103 assessed as inhibition of fungal growth incubated for 48 hrs in presence of fluconazole by checkerboard microdilution assay; assay type: functional
Candida albicans [16] = test: Antifungal activity against Candida albicans 0304103 assessed as reduction in fungal growth incubated for 48 hrs by liquid based microdilution method; assay type: functional
Candida albicans [17] = test: Antifungal activity against Candida albicans SC5314 assessed as reduction in fungal growth incubated for 48 hrs by liquid based microdilution method; assay type: functional
[18] = Antifungal activity against Cryptococcus gattii VGI ATCC 14116 assessed as reduction in fungal growth incubated for 72 hrs by liquid based microdilution method; assay type: functional
Candida albicans [19] = test: Inhibition of biofilm formation in Candida albicans 0304103 at 0.125 ug/ml incubated for 24 hrs by microplate based analysis relative to control; assay type: functional
Candida albicans [20] = test: In vivo antifungal activity against Candida albicans SC5314 infected in […] ICR mouse model assessed as reduction in fungal burden in kidney at 10 mg/kg, ip measured for 5 days in presence of fluconazole; assay type: functional; settings: time 5 day
Candida albicans [21] = test: Antifungal activity against Candida albicans 0304103 assessed as downregulation of RLM1 expression at 8 ug/ml incubated for 24 hrs in presence of fluconazole by RT-PCR analysis; assay type: functional, organism-based; settings: dose 8.0 µg/ml
Cryptococcus neoformans [22] = test: Antifungal activity against Cryptococcus neoformans H99 assessed as log reduction in fungal growth at 2 ug/ml incubated for 72 hrs by time growth curve assay (reference value: 7.65 log10CFU/ml); assay type: functional; settings: dose 2 µg/ml
Candida albicans [23] = test: In vivo antifungal activity against Candida albicans 0304103 infected in […] ICR mouse model assessed as reduction in fungal burden in kidney at 5 mg/kg, ip measured for 5 days (reference value: 7.37 log10CFU/g); assay type: functional; settings: time 5 day
Candida albicans [24] = test: Inhibition of biofilm formation in Candida albicans 0304103 at 2 ug/ml incubated for 24 hrs by microplate based analysis relative to control; assay type: functional
Clavispora lusitaniae = test: Synergistic antifungal activity against Candida lusitaniae 9150 assessed as inhibition of fungal growth incubated for 48 hrs in presence of fluconazole by checkerboard microdilution assay; assay type: functional, organism-based
Cryptococcus neoformans [25] = test: Antifungal activity against Cryptococcus neoformans ATCC 34877 assessed as reduction in fungal growth incubated for 72 hrs by liquid based microdilution method; assay type: functional
Cryptococcus neoformans [26] = test: Antifungal activity against Cryptococcus neoformans H99 assessed as inhibition of fungal growth incubated for 72 hrs by time growth curve assay; assay type: functional, organism-based; settings: dose 0.13-2 µg/ml
Cryptococcus neoformans [27] = test: Antifungal activity against Cryptococcus neoformans H99 assessed as inhibition of capsule growth at 0.063 to 2 ug/ml measured after 24 hrs by laser confocal microscopy based analysis; assay type: functional, organism-based; settings: dose 0.063-2 µg/ml
Candida albicans [28] = test: Inhibition of biofilm formation in Candida albicans 0304103 at 2 ug/ml incubated for 24 hrs in presence of fluconazole by microplate based analysis relative to control; assay type: functional
[Candida] auris = Synergistic antifungal activity against Candida auris 0029 assessed as inhibition of fungal growth incubated for 48 hrs in presence of fluconazole by checkerboard microdilution assay; assay type: functional, organism-based; settings: Candidozyma auris
Candida albicans [29] = test: Antifungal activity against Candida albicans 0304103 assessed as downregulation of TEC1 expression at 8 ug/ml incubated for 24 hrs in presence of fluconazole by RT-PCR analysis; assay type: functional, organism-based; settings: dose 8.0 µg/ml
Candida albicans [30] = test: Antifungal activity against Candida albicans 0304103 assessed as inhibition of fungal growth at 32 ug/ml incubated for 72 hrs by time growth curve assay; assay type: functional, organism-based; settings: dose 32.0 µg/ml
Cryptococcus neoformans [31] = test: Inhibition of biofilm formation in Cryptococcus neoformans H99 at 0.063 ug/ml incubated for 24 hrs by microplate based analysis relative to control; assay type: functional
Candida albicans [32] = test: Antifungal activity against Candida albicans 0304103 assessed as downregulation of APH5 expression at 8 ug/ml incubated for 24 hrs in presence of fluconazole by RT-PCR analysis; assay type: functional, organism-based; settings: dose 8.0 µg/ml
Candida albicans [33] = test: Antifungal activity against Candida albicans 0304103 assessed as inhibition of fungal growth at 8 ug/ml incubated for 48 hrs in presence of fluconazole by time growth curve assay; assay type: functional, organism-based; settings: dose 8.0 µg/ml
Cryptococcus neoformans [34] = test: Antifungal activity against Cryptococcus neoformans H99 assessed as reduction in fungal growth incubated for 72 hrs by liquid based microdilution method; assay type: functional
Candida albicans [35] = test: Antifungal activity against Candida albicans 0304103 assessed as inhibition of filamentation at 2 ug/ml incubated for 3 hrs by inverted cell microscope based analysis; assay type: functional, organism-based; settings: dose 2.0 µg/ml

CO/N=C1/c2ccsc2C(=O)c2c(C)noc21
fold change (FC) (Candida albicans [1]): 0.8 | Activity (Candida tropicalis [2]): inactive | Activity (Pichia kudriavzevii): inactive | Activity (Candida albicans [3]): Active | Activity (Candida albicans [4]): Active | Papp at 12 h [5]: 8.34 ×10⁻⁶ cm/s | Activity (Candida albicans [6]): 6.13 log10CFU/ml | Activity (Candida albicans [7]): Active | Activity (Cryptococcus neoformans [8]): 100% | fractional inhibitory concentration index (FICI) (Candida albicans [9]): 0.078 | Activity (Candida albicans [10]): Active | Activity (Candida parapsilosis): inactive | MIC80 (Candida tropicalis [11]): 16 µg/mL (≈ 64.4 µM) | Activity (Candida albicans [12]): 5.31 log10CFU/g | Activity (Candida albicans [13]): Active | MIC80 (Nakaseomyces glabratus): > 64 µg/mL | Activity (Cryptococcus neoformans [14]): 7.96 log10CFU/g | MIC80 (Candida albicans [15]): 2 µg/mL | MIC80 (Candida albicans [16]): 32 µg/mL (≈ 129 µM) | MIC80 (Candida albicans [17]): > 64 µg/mL | MIC80 [18]: 4 µg/mL (≈ 16.1 µM) | inhibition at 0.125 µg/mL (Candida albicans [19]): 40% | Activity (Candida albicans [20]): 5.02 log10CFU/g | Activity (Candida albicans [21]): Active | Activity (Cryptococcus neoformans [22]): 6.22 log10CFU/ml | Activity (Candida albicans [23]): 5.73 log10CFU/g | inhibition at 2 µg/mL (Candida albicans [24]): ~30% | Activity (Clavispora lusitaniae): inactive | MIC80 (Cryptococcus neoformans [25]): 0.13 µg/mL (≈ 0.524 µM) | Activity (Cryptococcus neoformans [26]): Dose-Dependent Effect | Activity (Cryptococcus neoformans [27]): Active | inhibition at 2 µg/mL (Candida albicans [28]): 50% | Activity ([Candida] auris): inactive | Activity (Candida albicans [29]): Active | Activity (Candida albicans [30]): Active | inhibition at 0.063 µg/mL (Cryptococcus neoformans [31]): > 90% | Activity (Candida albicans [32]): Active | Activity (Candida albicans [33]): Active | MIC80 (Cryptococcus neoformans [34]): 0.016 µg/mL (≈ 0.0644 µM) | Activity (Candida albicans [35]): Active
